Test results published in US11478474B2, “2-(3′-(hydroxymethyl)-1-methyl-5-((5-(2-methyl-4-(oxetan-3-yl)piperazin-1-yl)pyridin-2-yl)amino)-6-oxo-1,6-dihydro-[3,4′-bipyridin]-2′-yl)-7,7-dimethyl-7,8-dihydro-2H-cyclopenta[4,5]pyrrolo[1,2-a]pyrazin-1(6H)-one as a BTK inhibitor” (HUTCHISON MEDIPHARMA LIMITED, priority 2020, dated 2022).

Tests used:
[1] = Stability test in liver microsomes (mouse); type: in vitro ADME; conditions: mouse liver microsomes 0.5 mg/mL, compound 1 μM, 37° C.
Description: (§1) Example 5 Stability Test in Liver Microsomes
(§2) Both male CD-1 mouse pooled liver microsomes and male SD rat pooled liver microsomes were purchased from BioreclamationIVT Corporation, USA.
(§3) Phenacetin, glucose-6-phosphate dehydrogenase (G-6-PDH) and nicotinamide adenine dinucleotide phosphate (NADP) were all purchased from Sigma-Aldrich Corporation, USA. Glucose-6-phosphate (G-6-P) was purchased from Shanghai Eybridge Chemical Technology Co., Ltd.
(§4) Ten mM test compound stock solution: a certain amount of test compound was weighed, and dissolved with an appropriate volume of DMSO to prepare a stock solution with a concentration of 10 mM for use.
(§5) Reaction stopping solution: an appropriate amount of internal standard compound phenacetin was dissolved in acetonitrile to prepare a reaction stopping solution with a concentration of 1000 ng/mL for use at room temperature.
(§6) The test compound stock solution was diluted with an organic solvent (usually a mixture of acetonitrile, methanol and water with various ratios, depending on the solubility of the compound, if necessary, 1 N hydrochloric acid or 1 N sodium hydroxide would be added to facilitate solubilization) to the 0.1 mM (the final concentration of the compound in the reaction system was 1 μM) and the concentration percentage of the organic solvents in the incubation system no more than 1% (wherein the percentage of DMSO was required to be no more than 0.1%). An appropriate amount of 100 mM NADP, 500 mM G-6-P and 100 Unit/mL G-6-PDH were mixed and diluted with ultrapure water (the final system contains 1 mM NADP, 5 mM G-6-P and 1 Unit/mL G-6-PDH), pre-incubated in a 37° C. water bath for 10 minutes and then placed on ice for use as a NADPH regeneration solution. 20 mg/mL liver microsomes solution and 200 mM phosphate buffer was mixed, and diluted with ultrapure water to give a liver microsomes solution containing 2.5 mg/mL liver microsomes (the final concentration of the reaction system is 0.5 mg/mL) and 50 mM phosphate buffer. The diluted liver microsomes solution was mixed with 0.1 mM compound solution, a mixture of 100 mM EDTA, 300 mM MgCl2 solution, 200 mM phosphate buffer (the final system was 3 mM MgCl2, 1 mM EDTA and 50 mM phosphate buffer) and water in an appropriate volume was added. Finally, the NADPH regeneration solution was added, then the reaction solution was placed in a 37° C. water bath to start the reaction (the reaction time was 30 minutes), and the reaction was stopped by adding the ice-cold acetonitrile reaction stopping solution containing the internal standard. The 0-minute sample was not incubated in a 37° C. water bath, and its difference from the 30-minute sample further lies in that the ice-cold acetonitrile reaction stopping solution containing the internal standard was added first, and then the NADPH regeneration solution was added. The sample added with the reaction stopping internal standard solution was vortexed and mixed well, and then centrifuged at 4400 rpm for 10 minutes. The supernatant was taken and diluted ten times with 50% methanol for LC-MS/MS analysis.
(§7) LC-MS/MS was used to determine the concentration of the compound in the sample. The percentage of the remaining compound after 30 minutes of incubation comparing with that in the 0-minute sample was calculated using the peak area ratio of the compound to the internal standard as an indicator, to evaluate the metabolic stability of the compound.
(§8) Instrument: API4500, API4000 or LTQ Mass Spectrometer; the liquid phase is UHPLC system (Shimadzu LC-30 AD, model Nexra X2) including liquid delivery unit, column thermostat, detector and autosampler; or Agilent 1200 Binary Pump series HPLC and CTC Autosampler.
(§9) Chromatographic column: Waters XSELECT Hss T3 C18 (2.5 μm, 2.1×50 mm) or […] (5 μm, 2.0×50 mm)
(§10) A: water with 0.1% FA (formic acid) (with or without 0.1% ACN (acetonitrile))
(§11) B: acetonitrile with 0.1% FA (formic acid).

[2] = Stability test in liver microsomes (rat); type: in vitro ADME; conditions: for stability in rat & mouse liver microsomes compared with the reference GDC-0853: 30 minutes; for RLM (percentage of the remaining compound after 30 minutes of incubation): rat liver microsomes 0.5 mg/mL, compound 1 μM, 37° C.
Description: as §1, §2, §3, §4, §5, §6, §7, §8, §9, §10, §11

[3] = system: collagen induced arthritis in rats; test: Rat arthritis model induced by type II collagen (CIA), paw volume; type: in vivo; conditions: CIA Lewis rats
Method: Example 9 Therapeutic Effect of the Compound of the Present Invention on a Rat Arthritis Model Induced by Type II Collagen
An appropriate amount of bovine type II collagen (CII, Chondrex (Redmond, Wash., USA), Cat #20021) was weighed and dissolved in 0.1 mole of acetic acid (SPGC Sinopharm Chemical Reagent Co., Ltd (Shanghai, P. R. China), Cat #: 10000218.), which was formulated into a solution with a concentration of 6 mg/mL, stirred at 4° C. overnight, and added with an equal volume of Freund's incomplete adjuvant (Sigma-Aldrich. (St. Louis, Mo., USA), Cat #: SLBW0366.), fully emulsified to prepare an emulsion with a CII concentration of 3 mg/mL.
Female Lewis rats were purchased from Beijing Vital River Laboratory Animal Technology Co., Ltd (certificate number 1100111911070522, initial body weight of 110-130 grams), and 3 rats were randomly selected as normal group, and the remaining rats were grouped according to the following table. In the first immunization on day 0, the rats except that in the normal group were anesthetized with isoflurane (Hebei Yipin Pharmaceutical Co., Ltd., Lot: C002170601.), and then disinfected with 75% alcohol. 0.2 mL of emulsion was injected intradermally at the base of the tail thereof. A second challenge was carried out on day 7, and 0.2 mL of emulsion was intradermally injected using the same method.
The paw volume was measured on day 8 after immunization, and the left and right hind paw volumes (V) were measured every day after the paw volume increase was detected.
The average arthrosis paw volume of each animal before administration was used as the baseline (or considered 100% inhibition of inflammation). The averaged paw swelling (APS) of each animal is calculated according to the following formula, wherein, APVd1 is the average paw volume of the animal administered on day 1, and APVdt is the average paw volume of the animal administered on day t: The averaged paw swelling APSdt=(APVdt−APVd1)
ED50 is calculated by XLfit software according to the AUC inhibition ratio of the area under the curve of the average paw volume change. The selected model is “log (inhibitor) vs. response−Variable slope”: […]

[4] = oral QD, from AUC inhibition ratio of average paw volume change

| MLM (percentage of the remaining compound after 30 minutes of incubation) [1] | RLM (percentage of the remaining compound after 30 minutes of incubation) [2] | Structure (SMILES) | stability in rat & mouse liver microsomes compared with the reference GDC-0853 [2] | other results |
| --- | --- | --- | --- | --- |
| 83.4% | 91.8% | CC1CCc2cc3c(=O)n(-c4nccc(-c5cc(Nc6ccc(N7CCN(C8COC8)C[C@@H]7C)cn6)c(=O)n(C)c5)c4CO)ccn3c2C1 (mixture of isomers) [Compound 78] | better than that of the reference GDC-0853 | – |
| 95.6% | 92.1% | C[C@H]1CN(C2COC2)CCN1c1ccc(Nc2cc(-c3ccnc(-n4ccn5c6c(cc5c4=O)CCC6)c3CO)cn(C)c2=O)nc1 [Compound 64] | better than that of the reference GDC-0853 | – |
| 97.5% | 87.7% | C[C@H]1CN(C2COC2)CCN1c1ccc(Nc2cc(-c3ccnc(-n4ccn5c(cc6ccccc65)c4=O)c3CO)cn(C)c2=O)nc1 [Compound 74] | better than that of the reference GDC-0853 | – |
| 83.0% | 84.0% | C[C@H]1CN(C2COC2)CCN1c1ccc(Nc2cc(-c3ccnc(-n4ccn5c(cc6cc(F)ccc65)c4=O)c3CO)cn(C)c2=O)nc1 [Compound 75] | better than that of the reference GDC-0853 | – |
| ~100% | ~100% | C[C@H]1CN(C2COC2)CCN1c1ccc(Nc2cc(-c3ccnc(-n4ncn5c6c(cc5c4=O)CC(C)(C)C6)c3CO)cn(C)c2=O)nc1 [Compound 79] | better than that of the reference GDC-0853 | – |
| 76.3% | 81.0% | C[C@H]1CN(C2COC2)CCN1c1ccc(Nc2cc(-c3ccnc(N4CCn5c(cc6c5CC(C)(C)C6)C4=O)c3CO)cn(C)c2=O)nc1 [GDC-0853, fenebrutinib, reference compound] | – | inhibition ratio of area under the curve (paw swelling) ([3]; 4 mg/kg QD oral): 87.1%; paw volume compared with the vehicle control group ([3]; 4 mg/kg QD oral, p<0.01): significantly reduced |

Continued, compound first:

| Structure (SMILES) | MLM (percentage of the remaining compound after 30 minutes of incubation) [1] | RLM (percentage of the remaining compound after 30 minutes of incubation) [2] | stability in rat & mouse liver microsomes compared with the reference GDC-0853 [2] | other results |
| --- | --- | --- | --- | --- |
| C[C@@H]1CN(c2ccc(Nc3cc(-c4ccnc(-n5ccn6c7c(cc6c5=O)CCC7)c4CO)cn(C)c3=O)nc2)[C@@H](C)CN1C1COC1 [Compound 2, 2-(5-((5-((2S,5R)-2,5-dimethyl-4-(oxetan-3-yl)piperazin-1-yl)pyridin-2-yl)amino)-3′-(hydroxymethyl)-1-methyl-6-oxo-1,6-dihydro-[3,4′-bispyridin]-2′-yl)-7,8-dihydro-2H-cyclopenta[4,5]pyrrolo[1,2-a]pyrazin-1(6H)-one] | 90.5% | 98.9% | better than that of the reference GDC-0853 | – |
| Cn1cc(-c2ccnc(-n3ccn4c5c(cc4c3=O)CC(C)(C)C5)c2CO)cc(Nc2ccc(N3CCN(C4COC4)CC3)cn2)c1=O [Compound 9] | 95.7% | 89.5% | better than that of the reference GDC-0853 | – |
| C[C@H]1CN(C2COC2)CCN1c1ccc(Nc2cc(-c3ccnc(-n4ccn5c6c(cc5c4=O)CC(C)(C)C6)c3CO)cn(C)c2=O)nc1 [Compound 19] | 91.8% | 92.7% | better than that of the reference GDC-0853 | inhibition ratio of area under the curve (paw swelling) ([3]; 0.06 mg/kg QD oral): 58.8%; inhibition ratio of area under the curve (paw swelling) ([3]; 0.25 mg/kg QD oral): 91.3%; inhibition ratio of area under the curve (paw swelling) ([3]; 1 mg/kg QD oral): 95.9%; inhibition ratio of area under the curve (paw swelling) ([3]; 4 mg/kg QD oral): 93.2%; inhibition ratio of area under the curve (paw swelling) ([3]; 16 mg/kg QD oral): 97.5%; ED50 [3, 4]: < 0.06 mg/kg/day; ED90 [3, 4]: 0.26 mg/kg; minimum effective dose ([3]; oral QD, paw swelling): 0.06 mg/kg/day |
| C[C@H]1CN(C2COC2)CCN1c1ccc(Nc2cc(-c3ccnc(-n4ccn5c6c(cc5c4=O)CC(C)(C)C6)c3CO)nn(C)c2=O)nc1 [Compound 22] | 83.4% | 95.6% | better than that of the reference GDC-0853 | – |
| C[C@H]1CN(C2COC2)CCN1c1cnc(Nc2cc(-c3ccnc(-n4ccn5c6c(cc5c4=O)CC(C)(C)C6)c3CO)cn(C)c2=O)nc1 [Compound 44] | 93.1% | 97.1% | better than that of the reference GDC-0853 | – |
| C[C@H]1CN(C2COC2)CCN1c1ccc(Nc2cc(-c3ccnc(-n4ccn5c6c(cc5c4=O)CCC(F)(F)C6)c3CO)cn(C)c2=O)nc1 [Compound 56] | 89.5% | 93.7% | better than that of the reference GDC-0853 | – |
| C[C@H]1CN(C2COC2)CCN1c1ccc(Nc2cc(-c3ccnc(-n4ccn5c6c(cc5c4=O)CC(F)(F)CC6)c3CO)cn(C)c2=O)nc1 [Compound 58] | 97.1% | ~100% | better than that of the reference GDC-0853 | – |
| C[C@H]1CN(C2COC2)CCN1c1ccc(Nc2cc(-c3ccnc(-n4cnn5c6c(cc5c4=O)CC(C)(C)C6)c3CO)cn(C)c2=O)nc1 [Compound 63] | 85.8% | 89.6% | better than that of the reference GDC-0853 | – |
